Laboratory results from PubChem BioAssay (NCI).
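Five compound concentrations were applied to cells in 96-well plates for 48 hours; endpoints were derived by simple linear interpolation of the resulting dose-response curve. Abbreviation: GI50, concentration required for 50% inhibition of growth. TGI: concentration producing complete growth inhibition.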

Columns and labels:
Assay in all cases: inhibition of tumour cell growth, NCI panel, 48 h
786-0 renal = test system: 786-0 renal
A498 renal = test system: A498 renal
A549 NSCLC = test system: A549 NSCLC
ACHN renal = test system: ACHN renal
BT-549 breast = test system: BT-549 breast
CAKI-1 renal = test system: CAKI-1 renal
CCRF-CEM leukemia = test system: CCRF-CEM leukemia
COLO 205 colon = test system: COLO 205 colon
DU-145 prostate = test system: DU-145 prostate
HCC-2998 colon = test system: HCC-2998 colon
HCT-116 colon = test system: HCT-116 colon
HCT-15 colon = test system: HCT-15 colon
HL-60(TB) leukemia = test system: HL-60(TB) leukemia
HOP-62 NSCLC = test system: HOP-62 NSCLC
HOP-92 NSCLC = test system: HOP-92 NSCLC
HS 578T breast = test system: HS 578T breast
HT29 colon = test system: HT29 colon
IGROV1 ovarian = test system: IGROV1 ovarian
K-562 leukemia = test system: K-562 leukemia
KM12 colon = test system: KM12 colon
LOX IMVI melanoma = test system: LOX IMVI melanoma
M14 melanoma = test system: M14 melanoma
MALME-3M melanoma = test system: MALME-3M melanoma
MCF7 breast = test system: MCF7 breast
MDA-MB-231 breast = test system: MDA-MB-231 breast
MDA-MB-435 = test system: MDA-MB-435
MOLT-4 leukemia = test system: MOLT-4 leukemia
NCI-H226 lung = test system: NCI-H226 lung
NCI-H23 lung = test system: NCI-H23 lung
NCI-H460 lung = test system: NCI-H460 lung
NCI-H522 lung = test system: NCI-H522 lung
NCI/ADR-RES ovarian = test system: NCI/ADR-RES ovarian
OVCAR-3 ovarian = test system: OVCAR-3 ovarian
OVCAR-4 ovarian = test system: OVCAR-4 ovarian
OVCAR-5 ovarian = test system: OVCAR-5 ovarian
OVCAR-8 ovarian = test system: OVCAR-8 ovarian
PC-3 prostate = test system: PC-3 prostate
RPMI-8226 leukemia = test system: RPMI-8226 leukemia
RXF 393 renal = test system: RXF 393 renal
SF-268 CNS = test system: SF-268 CNS
SF-295 CNS = test system: SF-295 CNS
SF-539 CNS = test system: SF-539 CNS
SK-MEL-2 melanoma = test system: SK-MEL-2 melanoma
SK-MEL-28 melanoma = test system: SK-MEL-28 melanoma
SK-MEL-5 melanoma = test system: SK-MEL-5 melanoma
SK-OV-3 ovarian = test system: SK-OV-3 ovarian
SN12C renal = test system: SN12C renal
SNB-19 CNS = test system: SNB-19 CNS
SNB-75 CNS = test system: SNB-75 CNS
SR leukemia = test system: SR leukemia
SW-620 colon = test system: SW-620 colon
T-47D breast = test system: T-47D breast
TK-10 renal = test system: TK-10 renal
U251 CNS = test system: U251 CNS
UACC-257 melanoma = test system: UACC-257 melanoma
UACC-62 melanoma = test system: UACC-62 melanoma
UO-31 renal = test system: UO-31 renal

In the case of Cn1cc(C2=C(c3ccc(N)cc3)C(=O)NC2=O)c2ccccc21, the GI50 (786-0 renal) is reported as 11.9 µM, the TGI (786-0 renal) is reported as > 25 µM and the GI50 (A498 renal) is reported as 3.63 µM. For the same compound, the TGI (A498 renal) was 12 µM, the GI50 (A549 NSCLC) was 18.4 µM and the TGI (A549 NSCLC) was > 25 µM. The GI50 (ACHN renal) was 13.4 µM, the TGI (ACHN renal) was > 25 µM and the GI50 (BT-549 breast) was 11.4 µM. The TGI (BT-549 breast) was > 25 µM, the GI50 (CAKI-1 renal) was > 18.9 µM and the TGI (CAKI-1 renal) was > 25 µM. For the same compound, the GI50 (CCRF-CEM leukemia) was 12.3 µM, the TGI (CCRF-CEM leukemia) was > 25 µM and the GI50 (COLO 205 colon) was 11.6 µM. For the same compound, the TGI (COLO 205 colon) was > 25 µM, the GI50 (DU-145 prostate) was > 25 µM and the TGI (DU-145 prostate) was > 25 µM. For the same compound, the GI50 (HCC-2998 colon) was > 25 µM, the TGI (HCC-2998 colon) was > 25 µM and the GI50 (HCT-116 colon) was 11.3 µM. The TGI (HCT-116 colon) was > 25 µM, the GI50 (HCT-15 colon) was 11.5 µM and the TGI (HCT-15 colon) was > 25 µM. The GI50 (HL-60(TB) leukemia) was 8.58 µM, the TGI (HL-60(TB) leukemia) was > 25 µM and the GI50 (HOP-62 NSCLC) was > 25 µM. For the same compound, the TGI (HOP-62 NSCLC) was > 25 µM, the GI50 (HOP-92 NSCLC) was > 25 µM and the TGI (HOP-92 NSCLC) was > 25 µM. The GI50 (HS 578T breast) was 3.01 µM, the TGI (HS 578T breast) was > 16.1 µM and the GI50 (HT29 colon) was 12.5 µM. The TGI (HT29 colon) was > 25 µM, the GI50 (IGROV1 ovarian) was > 23.7 µM and the TGI (IGROV1 ovarian) was > 25 µM. For the same compound, the GI50 (K-562 leukemia) was 9.71 µM, the TGI (K-562 leukemia) was > 25 µM and the GI50 (KM12 colon) was 10.9 µM. The TGI (KM12 colon) was > 25 µM, the GI50 (LOX IMVI melanoma) was 9.88 µM and the TGI (LOX IMVI melanoma) was > 25 µM. For the same compound, the GI50 (M14 melanoma) was > 20.4 µM, the TGI (M14 melanoma) was > 25 µM and the GI50 (MALME-3M melanoma) was > 25 µM. For the same compound, the TGI (MALME-3M melanoma) was > 25 µM, the GI50 (MCF7 breast) was 13.7 µM and the TGI (MCF7 breast) was > 25 µM. The GI50 (MDA-MB-231 breast) was > 23 µM, the TGI (MDA-MB-231 breast) was > 25 µM and the GI50 (MDA-MB-435) was 5.71 µM. For the same compound, the TGI (MDA-MB-435) was 24.4 µM, the GI50 (MOLT-4 leukemia) was 9.3 µM and the TGI (MOLT-4 leukemia) was > 25 µM. For the same compound, the GI50 (NCI-H226 lung) was 16.1 µM, the TGI (NCI-H226 lung) was > 25 µM and the GI50 (NCI-H23 lung) was 21.6 µM. For the same compound, the TGI (NCI-H23 lung) was > 25 µM, the GI50 (NCI-H460 lung) was 23.3 µM and the TGI (NCI-H460 lung) was > 25 µM. For the same compound, the GI50 (NCI-H522 lung) was 15.4 µM, the TGI (NCI-H522 lung) was > 25 µM and the GI50 (NCI/ADR-RES ovarian) was 21.8 µM. The TGI (NCI/ADR-RES ovarian) was > 25 µM, the GI50 (OVCAR-3 ovarian) was 14.3 µM and the TGI (OVCAR-3 ovarian) was > 25 µM. The GI50 (OVCAR-4 ovarian) was > 25 µM, the TGI (OVCAR-4 ovarian) was > 25 µM and the GI50 (OVCAR-5 ovarian) was > 25 µM. The TGI (OVCAR-5 ovarian) was > 25 µM, the GI50 (OVCAR-8 ovarian) was > 25 µM and the TGI (OVCAR-8 ovarian) was > 25 µM. For the same compound, the GI50 (PC-3 prostate) was 17 µM, the TGI (PC-3 prostate) was > 25 µM and the GI50 (RPMI-8226 leukemia) was > 23.5 µM. The TGI (RPMI-8226 leukemia) was > 25 µM, the GI50 (RXF 393 renal) was 4.85 µM and the TGI (RXF 393 renal) was > 22.9 µM. For the same compound, the GI50 (SF-268 CNS) was 20.1 µM, the TGI (SF-268 CNS) was > 25 µM and the GI50 (SF-295 CNS) was 15.7 µM. For the same compound, the TGI (SF-295 CNS) was > 25 µM, the GI50 (SF-539 CNS) was 9.02 µM and the TGI (SF-539 CNS) was > 25 µM. For the same compound, the GI50 (SK-MEL-2 melanoma) was 8.38 µM, the TGI (SK-MEL-2 melanoma) was > 19 µM and the GI50 (SK-MEL-28 melanoma) was > 25 µM. For the same compound, the TGI (SK-MEL-28 melanoma) was > 25 µM, the GI50 (SK-MEL-5 melanoma) was > 17.8 µM and the TGI (SK-MEL-5 melanoma) was > 25 µM. For the same compound, the GI50 (SK-OV-3 ovarian) was 13.9 µM, the TGI (SK-OV-3 ovarian) was > 25 µM and the GI50 (SN12C renal) was 16.3 µM. The TGI (SN12C renal) was > 25 µM, the GI50 (SNB-19 CNS) was > 25 µM and the TGI (SNB-19 CNS) was > 25 µM. The GI50 (SNB-75 CNS) was 0.571 µM, the TGI (SNB-75 CNS) was > 15.2 µM and the GI50 (SR leukemia) was 9.43 µM. The TGI (SR leukemia) was > 25 µM, the GI50 (SW-620 colon) was 13.7 µM and the TGI (SW-620 colon) was > 25 µM. For the same compound, the GI50 (T-47D breast) was > 24 µM, the TGI (T-47D breast) was > 25 µM and the GI50 (TK-10 renal) was > 25 µM. For the same compound, the TGI (TK-10 renal) was > 25 µM, the GI50 (U251 CNS) was 11.4 µM and the TGI (U251 CNS) was > 25 µM. For the same compound, the GI50 (UACC-257 melanoma) was > 25 µM, the TGI (UACC-257 melanoma) was > 25 µM and the GI50 (UACC-62 melanoma) was 11.8 µM. The TGI (UACC-62 melanoma) was > 25 µM, the GI50 (UO-31 renal) was 16.5 µM and the TGI (UO-31 renal) was > 25 µM.
